Experiment [1] relates to Rattus norvegicus. Briefly: Anti-inflammatory activity in Rattus norvegicus Sprague-Dawley (rat) assessed as increase in carrageenan-induced paw edema at 16.8 mg/kg, po measured at 4 hr by plethysmometer (reference value: 81.58 +/- 0.63 %). The class given is functional. (Carrageenan injected into the paw causes an acute inflammation.)
The subject of experiment [2] is Rattus norvegicus. In words: Anti-inflammatory activity in Rattus norvegicus Sprague-Dawley (rat) assessed as increase in carrageenan-induced paw edema at 16.8 mg/kg, po measured at 2 hr by plethysmometer (reference value: 64.73 +/- 0.72 %). The class given is functional.
In experiment [3] the test system is Rattus norvegicus. In words: Antiulcerogenic activity in fasted Rattus norvegicus Sprague-Dawley (rat) stomach assessed as ulcer index at 64.1 mg/kg, po after 8 hr (reference value: 0.23 +/- 0.09). The class given is functional.
Experiment [4] deals with Mus musculus. Briefly: Analgesic activity in Mus musculus (mouse) assessed as inhibition of acetic acid-induced abdominal writhing at 13.35 mg/kg, po measured for 20 min relative to vehicle-treated control. Conditions: Abdomen.
Experiment [5] concerns Rattus norvegicus. In words: Anti-inflammatory activity in Rattus norvegicus Sprague-Dawley (rat) assessed as increase in carrageenan-induced paw edema at 16.5 mg/kg, po measured at 4 hr by plethysmometer (reference value: 81.58 +/- 0.63 %). The class given is functional.
For experiment [6], the system named is Rattus norvegicus. Briefly: Anti-inflammatory activity in Rattus norvegicus Sprague-Dawley (rat) assessed as increase in carrageenan-induced paw edema at 16.5 mg/kg, po measured at 2 hr by plethysmometer (reference value: 64.73 +/- 0.72 %). The class given is functional.
The test system of experiment [7] is Rattus norvegicus. In words: Antiulcerogenic activity in fasted Rattus norvegicus Sprague-Dawley (rat) stomach assessed as ulcer index at 66 mg/kg, po after 8 hr (reference value: 0.23 +/- 0.09). The format is functional.
For experiment [8], the system named is Mus musculus. Briefly: Analgesic activity in Mus musculus (mouse) assessed as inhibition of acetic acid-induced abdominal writhing at 13.75 mg/kg, po measured for 20 min relative to vehicle-treated control. Conditions: Abdomen. (An intraperitoneal irritant provokes the stretching counted in writhing tests.)
Experiment [9] concerns Rattus norvegicus. Briefly: Anti-inflammatory activity in Rattus norvegicus Sprague-Dawley (rat) assessed as increase in carrageenan-induced paw edema at 15.6 mg/kg, po measured at 4 hr by plethysmometer (reference value: 81.58 +/- 0.63 %). The format is functional.
The subject of experiment [10] is Rattus norvegicus. Briefly: Anti-inflammatory activity in Rattus norvegicus Sprague-Dawley (rat) assessed as increase in carrageenan-induced paw edema at 15.6 mg/kg, po measured at 2 hr by plethysmometer (reference value: 64.73 +/- 0.72 %). The format is functional.
Experiment [11] has as its system Rattus norvegicus. Briefly: Antiulcerogenic activity in fasted Rattus norvegicus Sprague-Dawley (rat) stomach assessed as ulcer index at 62.2 mg/kg, po after 8 hr (reference value: 0.23 +/- 0.09). The class given is functional.
Experiment [12] has as its system Mus musculus. In words: Analgesic activity in Mus musculus (mouse) assessed as inhibition of acetic acid-induced abdominal writhing at 12.9 mg/kg, po measured for 20 min relative to vehicle-treated control. Conditions: Abdomen.
For experiment [13], the system named is Rattus norvegicus. Briefly: Anti-inflammatory activity in Rattus norvegicus Sprague-Dawley (rat) assessed as increase in carrageenan-induced paw edema at 16 mg/kg, po measured at 4 hr by plethysmometer (reference value: 81.58 +/- 0.63 %). The format is functional.
The subject of experiment [14] is Rattus norvegicus. In words: Anti-inflammatory activity in Rattus norvegicus Sprague-Dawley (rat) assessed as increase in carrageenan-induced paw edema at 16 mg/kg, po measured at 2 hr by plethysmometer (reference value: 64.73 +/- 0.72 %). The format is functional.
The subject of experiment [15] is Rattus norvegicus. In words: Antiulcerogenic activity in fasted Rattus norvegicus Sprague-Dawley (rat) stomach assessed as ulcer index at 67.1 mg/kg, po after 8 hr (reference value: 0.23 +/- 0.09). The format is functional.
The subject of experiment [16] is Mus musculus. In words: Analgesic activity in Mus musculus (mouse) assessed as inhibition of acetic acid-induced abdominal writhing at 13.96 mg/kg, po measured for 20 min relative to vehicle-treated control. The note with it: Abdomen.
For experiment [17], the system named is Rattus norvegicus. Briefly: Anti-inflammatory activity in Rattus norvegicus Sprague-Dawley (rat) assessed as increase in carrageenan-induced paw edema at 16.6 mg/kg, po measured at 2 hr by plethysmometer (reference value: 64.73 +/- 0.72 %). The class given is functional.
Experiment [18] deals with Rattus norvegicus. Briefly: Anti-inflammatory activity in Rattus norvegicus Sprague-Dawley (rat) assessed as increase in carrageenan-induced paw edema at 16.6 mg/kg, po measured at 4 hr by plethysmometer (reference value: 81.58 +/- 0.63 %). The format is functional.
Experiment [19] relates to Rattus norvegicus. In words: Antiulcerogenic activity in fasted Rattus norvegicus Sprague-Dawley (rat) stomach assessed as ulcer index at 66.5 mg/kg, po after 8 hr (reference value: 0.23 +/- 0.09). The format is functional.
For experiment [20], the system named is Mus musculus. In words: Analgesic activity in Mus musculus (mouse) assessed as inhibition of acetic acid-induced abdominal writhing at 13.9 mg/kg, po measured for 20 min relative to vehicle-treated control. The note with it: Abdomen.
The subject of experiment [21] is Rattus norvegicus. In words: Anti-inflammatory activity in Rattus norvegicus Sprague-Dawley (rat) assessed as increase in carrageenan-induced paw edema at 16.4 mg/kg, po measured at 4 hr by plethysmometer (reference value: 81.58 +/- 0.63 %). The format is functional.
Experiment [22] concerns Rattus norvegicus. Briefly: Anti-inflammatory activity in Rattus norvegicus Sprague-Dawley (rat) assessed as increase in carrageenan-induced paw edema at 16.4 mg/kg, po measured at 2 hr by plethysmometer (reference value: 64.73 +/- 0.72 %). The class given is functional.
Experiment [23] has as its system Rattus norvegicus. Briefly: Antiulcerogenic activity in fasted Rattus norvegicus Sprague-Dawley (rat) stomach assessed as ulcer index at 65.7 mg/kg, po after 8 hr (reference value: 0.23 +/- 0.09). The format is functional.
Experiment [24] deals with Mus musculus. Briefly: Analgesic activity in Mus musculus (mouse) assessed as inhibition of acetic acid-induced abdominal writhing at 13.69 mg/kg, po measured for 20 min relative to vehicle-treated control. Conditions: Abdomen.
In experiment [25] the test system is Rattus norvegicus. In words: Anti-inflammatory activity in Rattus norvegicus Sprague-Dawley (rat) assessed as increase in carrageenan-induced paw edema at 12 mg/kg, po measured at 4 hr by plethysmometer (reference value: 81.58 +/- 0.63 %). The format is functional.
Experiment [26] has as its system Rattus norvegicus. Briefly: Anti-inflammatory activity in Rattus norvegicus Sprague-Dawley (rat) assessed as increase in carrageenan-induced paw edema at 12 mg/kg, po measured at 2 hr by plethysmometer (reference value: 64.73 +/- 0.72 %). The format is functional.
The subject of experiment [27] is Rattus norvegicus. In words: Antiulcerogenic activity in fasted Rattus norvegicus Sprague-Dawley (rat) stomach assessed as ulcer index at 48 mg/kg, po after 8 hr (reference value: 0.23 +/- 0.09). The format is functional.
The test system of experiment [28] is Mus musculus. Briefly: Analgesic activity in Mus musculus (mouse) assessed as inhibition of acetic acid-induced abdominal writhing at 10 mg/kg, po measured for 20 min relative to vehicle-treated control. The note with it: Abdomen.
Experiment [29] has as its system Rattus norvegicus. Briefly: Anti-inflammatory activity in Rattus norvegicus Sprague-Dawley (rat) assessed as increase in carrageenan-induced paw edema at 16.9 mg/kg, po measured at 4 hr by plethysmometer (reference value: 81.58 +/- 0.63 %). The format is functional.
Experiment [30] relates to Rattus norvegicus. Briefly: Anti-inflammatory activity in Rattus norvegicus Sprague-Dawley (rat) assessed as increase in carrageenan-induced paw edema at 16.9 mg/kg, po measured at 2 hr by plethysmometer (reference value: 64.73 +/- 0.72 %). The format is functional.
Experiment [31] relates to Rattus norvegicus. Briefly: Antiulcerogenic activity in fasted Rattus norvegicus Sprague-Dawley (rat) stomach assessed as ulcer index at 67.6 mg/kg, po after 8 hr (reference value: 0.23 +/- 0.09). The class given is functional.
The subject of experiment [32] is Mus musculus. In words: Analgesic activity in Mus musculus (mouse) assessed as inhibition of acetic acid-induced abdominal writhing at 14.08 mg/kg, po measured for 20 min relative to vehicle-treated control. Conditions: Abdomen.

With `COc1ccc2c(c1)c(CC(=O)Oc1ccc3ccc(=O)oc3c1)c(C)n2C(=O)c1ccc(Cl)cc1`, the Activity was 50.27% in the experiment on Rattus norvegicus [1] and 48.06% with Rattus norvegicus [2]. In the experiment with Rattus norvegicus [3], the UI worked out at 1.28. Further, in the experiment on Mus musculus [4], the inhibition in vivo at 13.35 mg/kg is 75.2%.

With `COc1ccc2c(c1)c(CC(=O)Oc1ccc(C=O)cc1OC)c(C)n2C(=O)c1ccc(Cl)cc1`, the Activity in the experiment with Rattus norvegicus [5] is on record as 49.87%; in the experiment on Rattus norvegicus [6], 47.13%. The UI in the experiment on Rattus norvegicus [7] was 1.23. Besides, the inhibition in vivo at 13.75 mg/kg in the experiment on Mus musculus [8] was 81.5%.

For `COc1ccc2c(c1)c(CC(=O)Oc1ccccc1OC)c(C)n2C(=O)c1ccc(Cl)cc1`, the Activity in the experiment with Rattus norvegicus [9] was found to be 48.21%; with Rattus norvegicus [10], 46.89%. The UI in the experiment on Rattus norvegicus [11] is 1.15. Further, the inhibition in vivo at 12.9 mg/kg in the experiment with Mus musculus [12] was determined as 78.7%.

Consider `COc1ccc2c(c1)c(CC(=O)Oc1ccc3c(c1)OCO3)c(C)n2C(=O)c1ccc(Cl)cc1`, for which the Activity was determined as 44.52% in the experiment with Rattus norvegicus [13] and 43.17% in the experiment with Rattus norvegicus [14]. Besides, the UI in the experiment on Rattus norvegicus [15] is 0.79. In the experiment on Mus musculus [16], the inhibition in vivo at 13.96 mg/kg turned out to be 86%.

As to `COc1ccc2c(c1)c(CC(=O)O[C@@H]1C[C@H](C)CC[C@H]1C(C)C)c(C)n2C(=O)c1ccc(Cl)cc1`, the Activity in the experiment on Rattus norvegicus [17] turned out to be 52.01%; in the experiment with Rattus norvegicus [18], 55.54%. In addition, in the experiment on Rattus norvegicus [19], the UI was 1.41. The inhibition in vivo at 13.9 mg/kg in the experiment on Mus musculus [20] amounted to 73.9%.

With `COc1ccc2c(c1)c(CC(=O)Oc1cc(C)ccc1C(C)C)c(C)n2C(=O)c1ccc(Cl)cc1`, the Activity in the experiment with Rattus norvegicus [21] is reported as 54.61%; with Rattus norvegicus [22], 50.25%. Moreover, in the experiment with Rattus norvegicus [23], the UI amounted to 1.37. The inhibition in vivo at 13.69 mg/kg with Mus musculus [24] was determined as 73.2%.

Consider `COc1ccc2c(c1)c(CC(=O)O)c(C)n2C(=O)c1ccc(Cl)cc1` [INDOMETHACIN], for which the figures for the Activity in the experiment on Rattus norvegicus [25] and in the experiment with Rattus norvegicus [26] were 57.39% and 48.35%, respectively. The UI in the experiment with Rattus norvegicus [27] is recorded as 5.54. Besides, the inhibition in vivo at 10 mg/kg in the experiment with Mus musculus [28] amounted to 74.9%.

In the case of `C=CCc1ccc(OC(=O)Cc2c(C)n(C(=O)c3ccc(Cl)cc3)c3ccc(OC)cc23)c(OC)c1`, the Activity with Rattus norvegicus [29] was found to be 45.39%; in the experiment on Rattus norvegicus [30], 44.33%. The UI with Rattus norvegicus [31] was 0.93. In addition, the inhibition in vivo at 14.08 mg/kg with Mus musculus [32] came to 84.8%.

The inhibition in vivo is how much of the control response was suppressed.

The record behind these values is ChEMBL document CHEMBL3045929, “Design, synthesis, and evaluation of novel indomethacinantioxidant codrugs as gastrosparing NSAIDs” (2012).
